Reference: ChEMBL document CHEMBL2321868, “The discovery of novel potent trans-3,4-disubstituted pyrrolidine inhibitors of the human aspartic protease renin from in silico three-dimensional (3D) pharmacophore searches” (J Med Chem, 2013)

Tests used:
Renin = target: T1, Renin (Homo sapiens, UniProt P00797); test: Inhibition of human recombinant renin expressed in CHO cells using RE(EDANS)IHPFHLVIHTK(Dabcyl)R as substrate incubated for 1 hr prior to substrate addition measured after 2 hrs by FRET-based enzymatic assay
T1 sequence (P00797 whole entry): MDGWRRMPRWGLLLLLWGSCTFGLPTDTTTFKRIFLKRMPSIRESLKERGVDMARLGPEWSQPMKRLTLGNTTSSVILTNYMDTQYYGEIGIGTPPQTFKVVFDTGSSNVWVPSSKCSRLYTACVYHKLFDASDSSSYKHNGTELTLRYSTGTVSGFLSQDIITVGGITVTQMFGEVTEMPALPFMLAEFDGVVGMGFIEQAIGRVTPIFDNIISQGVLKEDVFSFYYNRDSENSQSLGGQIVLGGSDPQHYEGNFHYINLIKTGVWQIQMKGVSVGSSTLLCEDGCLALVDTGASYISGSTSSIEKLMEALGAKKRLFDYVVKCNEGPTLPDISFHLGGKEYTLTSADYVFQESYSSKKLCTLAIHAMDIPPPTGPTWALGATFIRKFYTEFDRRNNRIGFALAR

Renin (Homo sapiens) = target: T2, Renin (Homo sapiens) (UniProt P00797); test: Inhibition of human recombinant renin expressed in CHO cells using RE(EDANS)IHPFHLVIHTK(Dabcyl)R as substrate at 10 uM incubated for 1 hr prior to substrate addition measured after 2 hrs by FRET-based enzymatic assay
T2 sequence (whole entry): T1 sequence (P00797 whole entry)

Gastricsin = target: T3, Gastricsin (Homo sapiens, UniProt P20142); test: Inhibition of human recombinant pepsin C expressed in Escherichia coli using Dabcyl-E-R-Nle-F-L-S-F-P-EDANS as substrate incubated for 1 hr prior to substrate addition measured after 1 hr by FRET-based enzymatic assay
T3 sequence (P20142 whole entry): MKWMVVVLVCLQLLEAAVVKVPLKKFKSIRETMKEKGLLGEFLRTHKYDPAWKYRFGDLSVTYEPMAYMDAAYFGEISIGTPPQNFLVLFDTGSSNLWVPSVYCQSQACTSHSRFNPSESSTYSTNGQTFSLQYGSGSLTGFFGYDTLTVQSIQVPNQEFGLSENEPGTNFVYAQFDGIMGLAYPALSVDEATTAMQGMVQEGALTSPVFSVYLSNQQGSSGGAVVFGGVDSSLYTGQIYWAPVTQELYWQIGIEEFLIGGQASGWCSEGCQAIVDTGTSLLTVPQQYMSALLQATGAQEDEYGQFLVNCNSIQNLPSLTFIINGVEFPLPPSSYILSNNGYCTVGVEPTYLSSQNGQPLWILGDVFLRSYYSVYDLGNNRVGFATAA

Cathepsin D = Cathepsin D (Homo sapiens, UniProt P07339); test: Inhibition of human recombinant cathepsin-D expressed in baculovirus-infected insect sf9 cells using Ac- E-D(EDANS)-KPILFFRLG-K(Dabcyl)-E-Amid as substrate incubated for 1 hr prior to substrate addition measured after 1 hr by FRET-based enzymatic assay
Cathepsin E = target: T4, Cathepsin E (Homo sapiens, UniProt P14091); test: Inhibition of human recombinant cathepsin-E expressed in Escherichia coli using Ac- E-D(EDANS)-KPILFFRLG-K(Dabcyl)-E-Amid as substrate incubated for 1 hr prior to substrate addition measured after 1 hr by FRET-based enzymatic assay
T4 sequence (P14091 whole entry): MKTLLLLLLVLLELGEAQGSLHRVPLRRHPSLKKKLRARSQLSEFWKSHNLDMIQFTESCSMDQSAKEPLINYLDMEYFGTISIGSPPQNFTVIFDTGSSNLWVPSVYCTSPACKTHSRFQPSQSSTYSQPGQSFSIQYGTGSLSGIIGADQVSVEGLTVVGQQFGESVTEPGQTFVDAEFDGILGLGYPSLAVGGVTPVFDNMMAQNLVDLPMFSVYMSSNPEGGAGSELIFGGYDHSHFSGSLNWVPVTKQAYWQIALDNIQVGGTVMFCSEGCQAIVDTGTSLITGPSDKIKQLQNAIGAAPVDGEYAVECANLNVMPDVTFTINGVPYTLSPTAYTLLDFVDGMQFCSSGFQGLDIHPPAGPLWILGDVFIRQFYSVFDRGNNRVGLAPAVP

[1] = Inhibition of human recombinant pepsin A expressed in Escherichia coli using Dabcyl-E-R-Nle-F-L-S-F-P-EDANS as substrate incubated for 1 hr prior to substrate addition measured after 1 hr by FRET-based enzymatic assay

Chain of Cathepsin D (P07339 65-162 limits assumed): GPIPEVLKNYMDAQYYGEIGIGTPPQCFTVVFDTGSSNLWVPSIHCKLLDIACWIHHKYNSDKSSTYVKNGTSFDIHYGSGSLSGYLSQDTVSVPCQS
Chain of Cathepsin D (P07339 169-412 limits assumed): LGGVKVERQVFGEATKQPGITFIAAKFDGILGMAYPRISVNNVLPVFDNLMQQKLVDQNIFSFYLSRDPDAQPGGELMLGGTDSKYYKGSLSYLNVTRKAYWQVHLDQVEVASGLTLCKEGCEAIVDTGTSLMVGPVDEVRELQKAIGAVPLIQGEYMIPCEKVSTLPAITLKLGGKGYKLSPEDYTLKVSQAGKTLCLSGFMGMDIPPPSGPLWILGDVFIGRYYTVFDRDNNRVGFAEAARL

Structure (SMILES)	IC50 (Renin) [µM]	other results
Clc1ccc(N(C[C@H]2CNC[C@@H]2Cc2ccccc2)c2ccccc2)cc1	18	–
COCCCOc1cc(C(=O)N(CC2CNCC2Cc2ccccc2)C(C)C)ccc1OC (racemic)	0.45	–
COCCCOc1cc(CN(CC2CNCC2Cc2ccccc2)C(C)C)ccc1OC (racemic)	7.7	–
Clc1ccc(N(CC2CNCC2Cc2ccccc2)c2ccccc2)cc1 (racemic)	14	–
COCCCOc1cc(C(=O)N(CC2CNCC2Cc2ccccc2)c2ccccc2)ccc1OC (racemic)	1.9	–
c1ccc([C@H]2CCNC[C@@H]2OCc2ccc3ccccc3c2)cc1	–	inhibition (Renin (Homo sapiens)): 34%
COCCCOc1cc(C(=O)N(CC2CNCC2Cc2ccccc2)c2ccc(Cl)cc2)ccc1OC (racemic)	1.7	–
COCCCOc1cc(C(=O)N(C[C@H]2CNC[C@@H]2Cc2ccccc2)C(C)C)ccc1OC	2.7	–
Clc1ccc(N(C[C@@H]2CNC[C@H]2Cc2ccccc2)c2ccccc2)cc1	7.6	IC50 (Gastricsin): 29 µM; IC50 (Cathepsin D): 11 µM; IC50 (Cathepsin E): 11 µM; IC50 [1]: 4.5 µM
COCCCOc1cc(CN(CC2CNCC2Cc2ccccc2)c2ccc(Cl)cc2)ccc1OC (racemic)	9.8	–
Clc1ccc(N(Cc2ccccc2)CC2CNCC2Cc2ccccc2)cc1 (racemic)	4.1	–
